Results published in patent US11091511B2, “Panaxdiol-type ginsenoside derivative, preparation method therefor and use thereof” (ARMY MEDICAL UNIVERSITY, priority 2016, dated 2021).
Marks after values point to notes of the source that are not given here.

Tests used:
apoE−/− mice [1] = experiment: Blood lipids (LDL-C, HDL-C) in apoE-/- mice on high-fat diet; type: in vivo, mouse; conditions: apoE-/- mice serum, intragastric 15 weeks, compounds 30 mg/(kg·d), simvastatin 10 mg/(kg·d), x ± s; for HDL-C: n = 5, saline control 3.74 ± 0.62; for LDL-C: n = 5, saline control 7.33 ± 1.03
Text: The effects of the compounds prepared in Examples 1-30 of the present invention on the percentages of areas of atherosclerotic plaque formation to the area of the entire artery in apoE−/− mice with a high-fat diet and the levels of low-density lipoprotein cholesterol and the levels of high-density lipoprotein, the specific steps are as follows:
1. animals: 160 ten-week-old, healthy and clean-grade apoE−/− mice (purchased from Peking University Experimental Animal Center), males, weight: 22-25 g, were housed in separate cages in a sterile laminar feeding room and fed freely. The mice were fed by a high-fat diet (conventional feed+0.15% cholesterol+21% lard) for 25 weeks, the room temperature was kept at 24° C., relative humidity: 50%, illumination time 7:30-19:30.
2. Grouping, administration method:
after 10 weeks of feeding, the animals were divided into the following 32 groups (n=5) by weight in a balanced and random manner, and killed 15 weeks after administration.
Normal saline control group: normal saline, intragastric administration.
Positive control group: simvastatin 10 mg/(kg·d), intragastric administration.
The compound groups prepared in Examples 1-30 of the present invention (30 groups in total): each was intragastric administered 30 mg/(kg·d).
(2) Determination of the levels of total cholesterol (TC), low-density cholesterol lipoprotein (LDL-C) and high-density lipoprotein cholesterol (HDL-C): using ROCHE 7060 automatic biochemical analyzer for the determination.
Data were expressed as x±s, and SPSS 10.0 line single-factor analysis of variance was performed among groups, a significant difference was indicated when p<0.05.

TNF-α = experiment: Local TNF-α level in the arteries of apoE-/- mice (Millipore liquid phase chip); type: in vivo, mouse; conditions: high-fat diet, intragastric 15 weeks, compounds 30 mg/(kg·d), simvastatin 10 mg/(kg·d), x ± s, n = 5, saline control 25.58 ± 6.44
Text: (§1) The effects of the compounds prepared in Examples 1-30 of the present invention on the percentages of areas of atherosclerotic plaque formation to the area of the entire artery in apoE−/− mice with a high-fat diet and the levels of low-density lipoprotein cholesterol and the levels of high-density lipoprotein, the specific steps are as follows: 1. animals: 160 ten-week-old, healthy and clean-grade apoE−/− mice (purchased from Peking University Experimental Animal Center), males, weight: 22-25 g, were housed in separate cages in a sterile laminar feeding room and fed freely. The mice were fed by a high-fat diet (conventional feed+0.15% cholesterol+21% lard) for 25 weeks, the room temperature was kept at 24° C., relative humidity: 50%, illumination time 7:30-19:30. 2. Grouping, administration method: after 10 weeks of feeding, the animals were divided into the following 32 groups (n=5) by weight in a balanced and random manner, and killed 15 weeks after administration. Normal saline control group: normal saline, intragastric administration. Positive control group: simvastatin 10 mg/(kg·d), intragastric administration. The compound groups prepared in Examples 1-30 of the present invention (30 groups in total): each was intragastric administered 30 mg/(kg·d). (3) Determination of TNF-α level: Millipore liquid phase chip method was used for the determination (Mcytomag-70K-3, Mouse Cytokine/Chemokine Magnetic Bead Panel). Data were expressed as x±s, and SPSS 10.0 line single-factor analysis of variance was performed among groups, a significant difference was indicated when p<0.05.

[2] = tested on: RAW264.7 cell-derived foam cells; experiment: Formation of RAW264.7 cell-derived foam cells (ox-LDL, oil red O, absorbance 490 nm); type: cell-based, mouse; conditions: 48 hours, model group = 100%, x ± s, n = 3
Procedure: The effects of the compounds prepared in Examples 1-30 of the present invention on the formation of RAW264.7 cell-derived foam cells, the specific steps are as follows:
1. Cell culture and foam cell model establishment:
RAW264.7 cells were cultured in DMEM culture medium with high glucose level (GIBCO) to a cell concentration of 1×10^6, planted in a 6-well plate, and 60 mg/L of ox-LDL (oxidized modified low-density lipoprotein, Peking Union Medical College) was added, foam cells were obtained after 48 hours of incubation.
2. Grouping and index detection:
The obtained foam cells were divided into 61 groups, 3 well plates were included in one group. After the treatment by adding the drugs (100 μL/well) for 48 hours, the medium was discarded, and after oil red 0 staining, the excess amount of oil red 0 was washed away. The cells were dissolved in isopropanol and the absorbance values were measured at 490 nm. The OD value of the model group was 100%, and the OD value of each group corrected by the number of cells was compared with the model group to obtain the ratio of intracellular lipid content. The larger the value, the more intracellular lipids, the higher the degree of formation of foam cells.
Normal saline control group: normal saline
Low dose groups of the compounds prepared in Examples 1-30 of the present invention:
10 μmol/L (solvents were normal saline).
High dose groups of compounds prepared in Examples 1-30 of the present invention: 30 μmol/L (solvents were normal saline).
Data were expressed as x±s, and SPSS 10.0 line single-factor analysis of variance was performed amoung groups, a significant difference was indicated when p<0.05.

apoE−/− mice [3] = experiment: Atherosclerotic plaque area to total aortic area in apoE-/- mice on high-fat diet (Sudan IV staining); type: in vivo, mouse; conditions: intragastric 15 weeks, compounds 30 mg/(kg·d), simvastatin 10 mg/(kg·d), x ± s, n = 5, saline control 14.67 ± 3.58
Text: as §1, with “(1) Analysis” for “(3) Determination”, “the area of atherosclerotic plaque and its percentage to total area: after the animals were killed, the aortas were separated, from the roots of the aortas to the terminal bifurcations of the abdominal aortas. After formalin fixation, the aortas were stained with Sudan IV, the red stained parts were the areas of atherosclerotic lesions. The percentage of the area of the lesion area to total area” for “TNF-α level: Millipore liquid phase chip method”, “calculated using Image Pro Plus 5.0 software.” for “used for the determination (Mcytomag-70K-3, Mouse Cytokine/Chemokine Magnetic Bead Panel).”

RAW264.7 cells = experiment: RAW264.7 cell survival rate by CCK8 method; type: cell-based, mouse; conditions: compound 10 prnol/L, 0.1% DMSO, CCK8, x ± s, n = 3, normal saline control = 1
Procedure: In order to further verify the toxicities of the compounds prepared in Examples 1-30 of the present invention, the mouse macrophage cell line RAW264.7 was cultured, and the compounds prepared in Examples 1-30 of the invention were prepared to a concentration of […] using culture medium, wherein the solvent was normal saline, the co-solvent was dimethyl sulfoxide (DMSO, the final concentratoin was 0.1%), and a 0.1% DMSO saline control group was provided. The cell survival rate was determined by CCK8 method. The data were expressed as x±s. SPSS 10.0 line single-factor analysis of variance was performed among groups. The difference was significant when p<0.05.

Structure (SMILES) | HDL-C (apoE−/− mice [1]) | LDL-C (apoE−/− mice [1]) | TNF-α level (ng/g) (TNF-α) | Foam cell formation (%) ([2]; dose 10 μmol/L) | Foam cell formation (%) ([2]; dose 30 μmol/L) | Plaque area/total aorta area (%) (apoE−/− mice [3]) | Cell Survival Rate (RAW264.7 cells)
CC(=O)OC[C@H]1O[C@H](O[C@@](C)(CCC=C(C)C)C2CC[C@]3(C)[C@@H]2C(OC(C)=O)CC2[C@@]4(C)CC[C@H](OC(C)=O)C(C)(C)C4CC[C@]23C)[C@H](OC(C)=O)[C@@H](OC(C)=O)[C@@H]1OC(C)=O (some centres unmarked) [Compound 1] | 4.55 ± 0.86 ^a mmol/L | 6.39 ± 1.09 mmol/L | 19.41 ± 3.81 ^a ng/g | 83 ± 12% | 65 ± 18 ^a % | 10.65 ± 2.62 ^a % | 0.65 ± 0.07 ^a
CC(=O)OC[C@H]1O[C@H](O[C@@](C)(CCC2OC2(C)C)C2CC[C@]3(C)[C@@H]2C(OC(C)=O)CC2[C@@]4(C)CC[C@H](OC(C)=O)C(C)(C)C4CC[C@]23C)[C@H](OC(C)=O)[C@@H](OC(C)=O)[C@@H]1OC(C)=O (some centres unmarked) [Compound 2] | 5.47 ± 0.91 ^a mmol/L | 5.56 ± 1.24 ^a mmol/L | 13.24 ± 3.71 ^a ng/g | 70 ± 25 ^a % | 64 ± 19% | 8.27 ± 2.54 ^a % | 0.51 ± 0.08 ^a
CC(=O)OC[C@H]1O[C@H](O[C@@](C)(CCC=O)C2CC[C@]3(C)[C@@H]2C(OC(C)=O)CC2[C@@]4(C)CC[C@H](OC(C)=O)C(C)(C)C4CC[C@]23C)[C@H](OC(C)=O)[C@@H](OC(C)=O)[C@@H]1OC(C)=O (some centres unmarked) [Compound 3] | 4.97 ± 0.95 ^a mmol/L | 6.12 ± 1.28 mmol/L | 16.68 ± 4.98 ^a ng/g | 85 ± 20% | 72 ± 13 ^a % | 9.74 ± 3.19 ^a % | 0.42 ± 0.03 ^a
COC(=O)[C@H](CC(C)C)NCCC[C@](C)(O[C@H]1O[C@H](COC(C)=O)[C@@H](OC(C)=O)[C@H](OC(C)=O)[C@H]1OC(C)=O)C1CC[C@]2(C)[C@@H]1C(OC(C)=O)CC1[C@@]3(C)CC[C@H](OC(C)=O)C(C)(C)C3CC[C@]12C (some centres unmarked) [Compound 4] | 5.48 ± 0.61 ^a mmol/L | 4.62 ± 1.58 ^a mmol/L | 11.04 ± 3.68 ^a ng/g | 74 ± 15 ^a % | 54 ± 12 ^a % | 9.52 ± 4.21 ^a % | 0.84 ± 0.02
COC(=O)[C@@H](NCCC[C@](C)(O[C@H]1O[C@H](COC(C)=O)[C@@H](OC(C)=O)[C@H](OC(C)=O)[C@H]1OC(C)=O)C1CC[C@]2(C)[C@@H]1C(OC(C)=O)CC1[C@@]3(C)CC[C@H](OC(C)=O)C(C)(C)C3CC[C@]12C)C(C)C (some centres unmarked) [Compound 5] | 5.21 ± 0.73 ^a mmol/L | 5.58 ± 1.89 ^a mmol/L | 17.73 ± 4.87 ^a ng/g | 77 ± 18 ^a % | 62 ± 13 ^a % | 10.29 ± 2.67 ^a % | 0.87 ± 0.08
COC(=O)[C@H](NCCC[C@](C)(O[C@H]1O[C@H](COC(C)=O)[C@@H](OC(C)=O)[C@H](OC(C)=O)[C@H]1OC(C)=O)C1CC[C@]2(C)[C@@H]1C(OC(C)=O)CC1[C@@]3(C)CC[C@H](OC(C)=O)C(C)(C)C3CC[C@]12C)[C@@H](C)O (some centres unmarked) [Compound 6] | 5.51 ± 0.94 ^a mmol/L | 6.04 ± 1.07 mmol/L | 11.35 ± 4.97 ^a ng/g | 73 ± 16 ^a % | 48 ± 14 ^a % | 8.16 ± 2.83 ^a % | 0.83 ± 0.09
COC(=O)[C@H](CO)NCCC[C@](C)(O[C@H]1O[C@H](COC(C)=O)[C@@H](OC(C)=O)[C@H](OC(C)=O)[C@H]1OC(C)=O)C1CC[C@]2(C)[C@@H]1C(OC(C)=O)CC1[C@@]3(C)CC[C@H](OC(C)=O)C(C)(C)C3CC[C@]12C (some centres unmarked) [Compound 7] | 4.52 ± 0.46 ^a mmol/L | 5.50 ± 1.82 ^a mmol/L | 17.77 ± 4.63 ^a ng/g | 83 ± 13% | 71 ± 13 ^a % | 11.02 ± 2.71 ^a % | 0.86 ± 0.01
CCC(C)(C)C(=O)O[C@H]1C[C@@H](C)C=C2C=C[C@H](C)[C@H](CC[C@@H]3C[C@@H](O)CC(=O)O3)[C@H]21 [Simvastatin, simvastatin, reference compound] | 3.69 ± 0.72 ^a mmol/L | 2.75 ± 1.89 ^a mmol/L | 14.84 ± 3.22 ^a ng/g |  |  | 7.95 ± 2.03 ^a % | 
